The results in this text go back to PubChem BioAssay (NCI).

What all share (experiment): NCI tumour cell line growth inhibition, 48 h
Test [1] relates to A549 NSCLC.
The test system of test [2] is CCRF-CEM leukemia.
For test [3], the system named is COLO 205 colon.
In test [4] the test system is HL-60(TB) leukemia.
Test [5] concerns HOP-92 NSCLC.
The test system of test [6] is MALME-3M melanoma.
Test [7] has as its system MOLT-4 leukemia.
Test [8] has as its system PC-3 prostate.
Test [9] has as its system SK-OV-3 ovarian.
Test [10] concerns UO-31 renal.

Molecules are shown by their SMILES. Where “and” joins values, the source holds several entries; their conditions need not be identical. Equal entries are not always repeated.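 The compound was tested at five concentrations on cells cultured in 96-well plates, with a 48-hour exposure period. At the GI50, growth is halved. TGI: total growth inhibition.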

For the compound `Nc1n[nH]c2ccc([C@@H]3Nc4ccc5cn[nH]c5c4[C@H]4C5CCC(C5)[C@@H]34)cc12` (some centres undefined), the GI50 in test [1] was 0.541 µM; in test [2] it was 0.343 µM; in test [3], 0.332 µM; in test [4], 0.326 µM; in test [5], 2.14 µM; in [6] it was 0.522 µM. For the same compound, the GI50 in test [7] is 0.446 µM; in test [8], 0.476 µM; in [9], 0.831 µM; in test [10], 1 µM. The TGI in [1] was more than 100 µM; in test [2], more than 100 µM; in test [3], 3.03 µM; in test [5] it was more than 89.4 µM; in test [6], more than 100 µM; in [7], more than 100 µM. Moreover, the TGI in [8], in [9] and in [10] was more than 100 µM each time.
On to `CC(=O)ON=C1C=CC(=C(C#N)c2ccccc2)C=C1`, for which the GI50 in [1] is 3.09 µM; in test [2], 0.387 µM; in test [3], 6.02 µM; in test [4], 1.11 µM; in test [5], 1.67 µM; in test [6], 4.01 µM. For the same compound, the GI50 in test [7] was 2.86 µM; in test [8] it was 0.476 µM; in test [9] it was 6.41 µM; in test [10], 0.576 µM. For the same compound, the TGI in [1] is more than 36 µM; in test [2] it was more than 100 µM; in test [3], 19.3 µM; in test [4], 4.87 µM; in [5], 6.99 µM; in [6], 20.1 µM. Moreover, the TGI was more than 100 µM in test [7], 12.3 µM in test [8], more than 100 µM in test [9] and 15.6 µM in test [10].
With `O=C(/C=C/C=C/c1ccc2c(c1)OCO2)N/N=C\c1ccc(O)cc1O`, the GI50 is 2.93 µM in test [1]; 0.559 µM in test [2]; 2.31 µM in [3]; 3.58 µM in test [4]; 1.98 µM in test [5]; 2.03 µM in [6]. Besides, the GI50 was 1.41 µM in test [7], 2.86 µM in [8], 3.43 µM in test [9] and 1.47 µM in test [10]. Besides, the TGI was 33.8 µM in test [1]; 17.9 µM in test [2]; 13.8 µM in [3]; 24.1 µM in test [4]; 13.5 µM in [5]; 10.5 µM in test [6]. In addition, the TGI came out at 18.8 µM in [7], 23.1 µM in test [8], 20.9 µM in [9] and 8.75 µM in [10].
With `CN1CCN(CCC=C2c3ccccc3Sc3ccc(S(=O)(=O)N(C)C)cc32)CC1`, the GI50 in test [1] is 5.69 µM and 9.71 µM; in test [2], 3.12 µM and 4.36 µM; in test [3] it was 1.44 µM and 1.66 µM; in test [4], 2.38 µM and 2.41 µM; in test [5], 0.516 µM and 2.84 µM; in [6], 1.73 µM and 2.54 µM. Also, the GI50 in [7] is 2.91 µM and 2.22 µM; in test [8], 3.7 µM and 7.99 µM; in [9] it was 9.22 µM and 13.6 µM; in [10], 3.46 µM and 4.23 µM. The TGI in test [1] was > 100 µM and 31.5 µM; in test [2], 20.1 µM and 23 µM; in [3], 2.82 µM and 3.7 µM; in test [4] it was 4.65 µM; in [5], 4.54 µM and 20.3 µM; in test [6] it was 3.5 µM and 9.72 µM. Further, the TGI in test [7] is 7.95 µM and 7.1 µM; in test [8], 32.5 µM and > 43.1 µM; in [9], 24.7 µM and 30.7 µM; in test [10] it was 25.1 µM and 21.1 µM.
For `C[C@]12CC[C@@H]3c4ccc(OC(=O)N(CCCl)CCCl)cc4CC[C@H]3[C@@H]1CC[C@@H]2OP(=O)(O)O`, the GI50 in [1] is 48.8 µM; in test [2], 25.7 µM; in [3], 57.8 µM; in test [4], 30.1 µM; in test [5], more than 100 µM; in test [6] it was 83.5 µM. Further, the GI50 in test [7] was more than 59.3 µM; in [8] it was 41.2 µM; in test [9], 32.7 µM; in test [10] it was 79.9 µM. Besides, the TGI in test [1] is more than 100 µM; in [2] it was more than 78.7 µM; in [3], more than 100 µM; in [4] it was 98.5 µM; in [5], more than 100 µM; in test [6] it was more than 100 µM. The TGI is more than 100 µM in test [7], more than 100 µM in [8], more than 89.2 µM in test [9] and more than 100 µM in test [10].
On to `O=C(Nc1cccc(-n2cc(-c3ccncc3)c(-c3ccc(Cl)c(O)c3)n2)c1)Nc1ccc(Cl)c(Cl)c1`, for which the GI50 in test [1] is 1.01 µM; in [2], 1.03 µM; in test [3], 3.96 µM; in [4], 0.515 µM; in test [5], 0.679 µM; in test [6], 1.19 µM. For the same compound, the GI50 is 1.38 µM in test [7], 0.834 µM in test [8], 1.2 µM in test [9] and 1.25 µM in test [10]. For the same compound, the TGI was more than 32.5 µM in [1]; more than 32.5 µM in test [2]; 9.49 µM in test [3]; more than 32.5 µM in [4]; 1.91 µM in test [5]; 8.1 µM in test [6]. Besides, the TGI in test [7], in test [8], in test [9] and in [10] was more than 32.5 µM each time.
In the case of `Nc1cc(N)c2nc(NCCc3ccc(Cl)c(Cl)c3)cnc2c1`, the GI50 in [1] was 17.7 µM; in test [2], 2.02 µM; in [3] it was 5.6 µM; in [4], 2.15 µM; in test [5] it was 6.15 µM; in test [6], 3.44 µM. Also, the GI50 in test [7] was 2.5 µM; in test [8] it was 9.32 µM; in [9] it was 17.1 µM; in test [10] it was 6.3 µM. Moreover, the TGI in test [1] amounted to 34.2 µM; in [2], 5.05 µM; in test [3] it was 24.3 µM; in test [4] it was 4.88 µM; in [5] it was 19.5 µM; in [6], 11.1 µM. Also, the TGI was determined as 8.22 µM in [7], 21.3 µM in test [8], 32 µM in test [9] and 20.3 µM in [10].
On to `C=CC(=O)N1CCC[C@@H](n2nc(-c3ccc(Oc4ccccc4)cc3)c3c(N)ncnc32)C1`, for which the GI50 in test [1] is more than 10 µM; in test [2], more than 10 µM; in test [3], more than 10 µM; in test [4] it was more than 5.51 µM; in [5] it was 2.67 µM; in test [6] it was more than 10 µM. Also, the GI50 in test [7] was more than 5.29 µM; in test [8] it was more than 10 µM; in [9] it was 0.0285 µM; in test [10], 1.1 µM. In addition, the TGI in test [1] was more than 10 µM; in test [2], more than 10 µM; in [3], more than 10 µM; in test [4], more than 10 µM; in [5], more than 8.69 µM; in [6], more than 10 µM. Also, the TGI is more than 10 µM in test [7], more than 10 µM in test [8], more than 2.42 µM in test [9] and more than 10 µM in test [10].
Regarding `O=C(N/N=C/c1ccncc1)c1ccc(F)cc1`, the GI50 in test [1], in test [2], in test [3], in test [4], in [5] and in [6] was more than 40 µM each time. For the same compound, the GI50 in test [7], in [8], in [9] and in [10] was more than 40 µM in each case. Also, the TGI in test [1], in [2], in [3], in [4], in test [5] and in test [6] was more than 40 µM in each case. Moreover, the TGI in [7], in [8], in [9] and in test [10] was more than 40 µM each time.
As for `COc1cc(C2CC(c3cccc(Nc4ccnc5cc(Cl)ccc45)c3)=NN2c2ccccc2)cc(OC)c1OC` (centres undefined), the GI50 in test [1] is 8.87 µM; in test [2], 6.4 µM; in test [3], 15.7 µM; in test [4], 5.37 µM; in test [5] it was 3.6 µM; in test [6] it was more than 100 µM. Also, the GI50 was 7.98 µM in [7], 1.71 µM in [8], more than 100 µM in [9] and 1.68 µM in test [10]. For the same compound, the TGI in test [1] was more than 100 µM; in test [2], more than 100 µM; in test [3] it was 46.3 µM; in test [4], more than 100 µM; in test [5], more than 100 µM; in test [6], more than 100 µM. Further, the TGI in [7], in [8], in test [9] and in test [10] was more than 100 µM each time.
For `COc1ncc(-c2ccc3nccc(C#CCCCCC(=O)NO)c3c2)cc1NS(=O)(=O)c1ccc(F)cc1F`, the GI50 in test [1] is 0.104 µM; in test [2], 0.105 µM; in test [3], 0.0897 µM; in [4] it was 0.0665 µM; in test [5], 0.0156 µM; in [6] it was 0.0604 µM. Besides, the GI50 in test [7] was 0.0622 µM; in test [8], 0.0545 µM; in test [9] it was 0.035 µM; in [10], 0.0737 µM. Moreover, the TGI amounted to 3.17 µM in test [1]; 5.65 µM in [2]; 2.18 µM in [3]; 3.06 µM in [4]; 0.106 µM in test [5]; 0.27 µM in [6]. For the same compound, the TGI in [7] came out at 1.42 µM; in test [8], 4.8 µM; in test [9] it was 0.18 µM; in test [10], 4 µM.
